Results: patent publication US5705687A, “Neurotropic drug and method for preparation of same” (priority 1993, dated 1998)
Where a name gives a salt, the structure may show the parent alone.

How the values were obtained:
[1] = system: mice; assay: Conditioned reaction of passive avoidance (CPRA), amnesia by electric shock; type: in vivo
From the text: The effect produced by the new substance on the processes of the central nervous system was examined on the model of one-time training of mice, of conditioned reaction of passive avoidance (CPRA), where the amnesic effect was produced by electric shock. During the tests, a two-section chamber was used to condition a certain reflex to the lit and darkened sections. First, for two minutes, the amount of time was registered, that a mouse spent in the lit section before entering the darkened section. Then, while in the darkened section, the animal would receive a single electric shock through the electrode floor (training). The training was immediately followed by an electric shock (50 Hz, 0.2 see). […] The substance was intraperitoneally administered 40 min. prior to the start of the training, the control group received a physiological solution. […] The anti-amnesic properties of the new compound are represented by an increase in the latent period before and after the training. (Δt)

[2] = Solubility and hygroscopicity; type: physicochemical; conditions: powder
[3] = system: central nervous system; assay: Neuropharmacological screening, overall findings; type: in vivo, mice; conditions: of all the salts derived
Procedure: The myorelaxing effect of the new compounds was tested by the method of the "rotating rod"(Dunham N. W., Miga T. S., A note on a simplex apparatus for detecting neurological deficit in rat and mice, J. Am. Pharm. Ass., 1957, vol. 46, No. 3, pp. 208-209), which allows one to record any abnormalities in coordination and balance, as well as ataxia. The mice in the laboratory tests were placed on a horizontal rod, 2 cm in diameter, rotating at a speed of 5 revolutions per minute. The object was to register the number of mice which were able to maintain equilibrium on the rod for two minutes. Any presence of a myorelaxing component was considered to be a side effect of the substance being studied.

[4] = system: mice; assay: Soporific action of hexobarbital; conditions: for Duration of sleep, % effect / Lateral position, % effect: hexobarbital alone = 100
[5] = system: mice; assay: Orientation reflexes: test of ascent onto an inclined net; conditions: 0.1 to 150 mg/kg
[6] = system: mice; assay: Spontaneous motor activity (SMA), 40-channel automatic motor meter; conditions: for Average SMA, M ± m: control 632.8 ± 35.2; for Relative change in activity (%): control = 100
[7] = 1 mg/kg i.p. + hexobarbital 100 mg/kg

For `CC(C)(CO)C(=O)C(=O)NCCCC(=O)O` [KPA-Ca, calcium salt of ketopantoyl aminobutyrate], the “% effect (latent period)” value ([1]; 100 mg/kg i.p., control + amnesia 91.2, w/o amnesia 288.1) was 260.4%, the “anti-amnesic effect (in words)” value ([1]; electric shock amnesia) was “counteracted the amnesic effect of the electric shock” and the hygroscopicity [2] was “hygroscopic”. The “properties compared with the other salts” value [3] was “best properties”, the “Duration of sleep” value [4, 7] was 44.6 ± 5.2 min and the “Lateral position” value [4, 7] was 2.5 ± 0.17 min. For the same compound, the “Duration of sleep, % effect” value ([4]; 1 mg/kg) was 96.3%, the “Lateral position, % effect” value ([4]; 1 mg/kg) was 104.2% and the “Lateral position” value ([4]; 10 mg/kg i.p. + hexobarbital 100 mg/kg) was 2.4 ± 0.16 min. The “Duration of sleep” value ([4]; 10 mg/kg i.p. + hexobarbital 100 mg/kg, P < 0.01) was 67.2 ± 4.3 min, the “Duration of sleep, % effect” value ([4]; 10 mg/kg) was 145.1% and the “Lateral position, % effect” value ([4]; 10 mg/kg) was 100%. For the same compound, the “Lateral position” value ([4]; 25 mg/kg i.p. + hexobarbital 100 mg/kg) was 2.5 ± 0.2 min, the “Duration of sleep” value ([4]; 25 mg/kg i.p. + hexobarbital 100 mg/kg, P < 0.001) was 60.6 ± 1.9 min and the “Duration of sleep, % effect” value ([4]; 25 mg/kg) was 130.9%. For the same compound, the “Lateral position, % effect” value ([4]; 25 mg/kg) was 104.2%, the “Lateral position” value ([4]; 50 mg/kg i.p. + hexobarbital 100 mg/kg) was 2.3 ± 0.15 min and the “Duration of sleep” value ([4]; 50 mg/kg i.p. + hexobarbital 100 mg/kg, P < 0.001) was 70.7 ± 3.1 min. For the same compound, the “increase of sleep duration” value ([4]; 50 mg/kg, hexobarbital) was 52.7%, the “Duration of sleep, % effect” value ([4]; 50 mg/kg) was 152.7% and the “Lateral position, % effect” value ([4]; 50 mg/kg) was 95.8%. The “Lateral position” value ([4]; 100 mg/kg i.p. + hexobarbital 100 mg/kg) was 2.4 ± 0.22 min, the “Duration of sleep” value ([4]; 100 mg/kg i.p. + hexobarbital 100 mg/kg, P < 0.001) was 93.7 ± 4.3 min and the “increase of sleep duration over control group (maximum effect)” value ([4]; 100 mg/kg, hexobarbital) was 102.4%. The “Duration of sleep, % effect” value ([4]; 100 mg/kg) was 202.4%, the “Lateral position, % effect” value ([4]; 100 mg/kg) was 100% and the “Lateral position” value ([4]; 150 mg/kg i.p. + hexobarbital 100 mg/kg) was 2.5 ± 0.34 min. For the same compound, the “Duration of sleep” value ([4]; 150 mg/kg i.p. + hexobarbital 100 mg/kg, P < 0.001) was 86.4 ± 4 min, the “Duration of sleep, % effect” value ([4]; 150 mg/kg) was 186.6% and the “Lateral position, % effect” value ([4]; 150 mg/kg) was 104.2%. For the same compound, the “change in effect on raising the dose” value ([4]; above 100 mg/kg) was “not noticeable change in the effect”, the “effect on the lateral position” value ([4]; hexobarbital) was “no effect on the lateral position” and the “effect on exploratory behaviour” value [5] was “does not disturb the "exploratory" behaviour”. For the same compound, the “decrease in number of runs in the motor meter (the same result)” value ([6]; 10 mg/kg) was 30%, the “dose for 30% decrease in runs, compared with pantogam dose” value ([6]; 10 mg/kg KPA-Ca vs 500 mg/kg pantogam) was 50 times less and the “Average SMA, M ± m” value ([6]; 10 mg/kg i.p., 60 min before, number of runs) was 482.8 ± 101.8. For the same compound, the “Relative change in activity (%)” value ([6]; 10 mg/kg i.p.) was 76.3%, the “Average SMA, M ± m” value ([6]; 25 mg/kg i.p., P < 0.01) was 369.1 ± 68.7 and the “Relative change in activity (%)” value ([6]; 25 mg/kg i.p.) was 58.3%. The “Average SMA, M ± m” value ([6]; 50 mg/kg i.p., P < 0.01) was 338.9 ± 74.5, the “Relative change in activity (%)” value ([6]; 50 mg/kg i.p.) was 53.6% and the “Average SMA, M ± m” value ([6]; 100 mg/kg i.p., P < 0.01) was 270.4 ± 75.3. The “Relative change in activity (%)” value ([6]; 100 mg/kg i.p.) was 42.7%, the “decrease in motor activity (the same effect)” value ([6]; 150 mg/kg) was 70% and the “Average SMA, M ± m” value ([6]; 150 mg/kg i.p., P < 0.001) was 190.6 ± 28.2. The “Relative change in activity (%)” value ([6]; 150 mg/kg i.p.) was 30.1%, the “dose of greatest effect on motor activity” value ([6]; SMA test, mice) was 150 mg/kg and the “effect on motor activity (in words)” value ([6]; SMA test, mice) was “decreases the motor activity”.
